{"source": "patent US20250186313A1", "about": "“SCALP OR HAIR CARE COMPOSITION COMPRISING NANO-CARBON STRUCTURE” (INBCT Co., Ltd., priority 2022, published 2025)", "key": {"[1]": {"test_system": "artificial skin model KeraSkin", "experiment": "Skin irritation test using artificial skin model KeraSkin (MTT)", "conditions": "negative control (DPBS) = 100%, nano-carbon structure at 0.1 wt % (1 mg/mL)", "protocol": "The inventors of the present invention evaluated the skin irritation of nano-carbon structures using the artificial skin model KeraSkin.\nSpecifically, the inventors of the present invention attempted to predict the possibility of skin irritation by measuring the damage to skin cells that appear while penetrating the stratum corneum of KeraSkin after sample treatment. This experiment used MTT, which is a reagent for measuring the cell viability of test materials, and was performed in compliance with the Cosmetic Risk Assessment Guidelines (Ministry of Food and Drug Safety, 2013) and Cosmetic Toxicity Test Animal Alternative Test Method Guideline V: Skin Irritation Test Method Using a Human Skin Model (Ministry of Food and Drug Safety, 2014)."}, "[2]": {"test_system": "artificial skin model KeraSkin", "experiment": "Skin corrosion test using artificial skin model KeraSkin (MTT)", "format": "cell-based, human", "conditions": "negative control (deionized water) = 100%, nano-carbon structure at 0.1 wt % (1 mg/mL)", "source_text": "The inventors of the present invention evaluated the skin corrosion properties of nano-carbon structures by using the artificial skin model […] is an artificial skin model that reproduces the skin's epithelium using human-derived skin keratinocytes and is manufactured to be similar to real skin in terms of morphology, microstructure and biomarker expression."}, "[3]": {"test_system": "artificial skin model KeraSkin", "experiment": "Skin barrier function improvement in SDS-damaged KeraSkin (TEER, TEWL, H&E, immunohistochemistry)", "format": "cell-based, human", "conditions": "KeraSkin damaged with 2% SDS, 10 μM retinoic acid or 0.01 wt % NGO", "description": "After treating the surface of KeraSkin with SDS (sodium dodecyl sulfate), which is an anionic surfactant, to weaken the skin's natural barrier function, a positive control material (10 μM retinoic acid) and a test material (0.01 wt % NGO) were added to the surface for 48 days. In order to evaluate the degree of improvement in the skin barrier function weakened by SDS by 48-hour application treatment, electrical resistance in epithelial tissue was measured by using the Millipore ERS-2 (Millipore, USA) system, and transepidermal water loss was measured by using the GPSKIN BARRIER PRO-II system, and histopathology was performed on four types of skin barrier markers through immunochemical staining.\nThe epithelial cell layer has developed tight junctions, which are one of the forms of bonding between cells. These tight junctions form physical and chemical barriers, and the strength and integrity of these barriers can be assessed through the degree of electrical resistance across cell layers, which are called “transepithelial electrical resistance (TEER).” As the barrier function is excellent, the transepithelial electrical resistance value increases.\nTransdermal moisture is an essential element for the skin to perform its barrier function normally, and when “transepidermal water loss (TEWL)” increases, the enzyme function required for normal exfoliation is damaged, and it is not possible to normally perform the skin barrier functions. Therefore, transepidermal water loss is used as an important physiological indicator during the damage and recovery process of the skin barrier."}}}
{"smiles": "CCCCCCCCCCCCOS(=O)(=O)[O-].[Na+]", "note": "[5% SDS, sodium dodecyl sulfate]", "values": [{"measurement": "cell viability", "setting": "[1]", "result": 1.6, "unit": "%"}]}
{"smiles": "[K+].[OH-]", "note": "[8N KOH, Potassium hydroxide]", "values": [{"measurement": "cell viability", "setting": "[2]; applied for 3 minutes", "result": 1.6, "unit": "%"}, {"measurement": "cell viability", "setting": "[2]; applied for 1 hour", "result": 0.6, "unit": "%"}]}
{"smiles": "CC1=C(/C=C/C(C)=C/C=C/C(C)=C/C(=O)O)C(C)(C)CCC1", "note": "[retinoic acid]", "values": [{"measurement": "increase of transepithelial electrical resistance compared to the barrier damaged group", "setting": "[3]", "result": 16.1, "unit": "%"}, {"measurement": "reduction of transepidermal water loss compared to the barrier damaged group", "setting": "[3]", "result": 10.8, "unit": "%"}, {"measurement": "transepithelial electrical resistance (TEER)", "setting": "[3]; 48-hour application, normal 1726.8±85.3, damaged 69.2±2.1", "result": "347.0±15.7 Ω·cm^2"}, {"measurement": "transepidermal water loss (TEWL) rate compared to the negative control group", "setting": "[3]; damaged group 133.7±3.2%", "result": "122.9±6.5", "unit": "%"}]}
